Biological target: T1, Ribosyldihydronicotinamide dehydrogenase [quinone] (Homo sapiens, UniProt P16083)
T1 sequence (P16083 whole entry): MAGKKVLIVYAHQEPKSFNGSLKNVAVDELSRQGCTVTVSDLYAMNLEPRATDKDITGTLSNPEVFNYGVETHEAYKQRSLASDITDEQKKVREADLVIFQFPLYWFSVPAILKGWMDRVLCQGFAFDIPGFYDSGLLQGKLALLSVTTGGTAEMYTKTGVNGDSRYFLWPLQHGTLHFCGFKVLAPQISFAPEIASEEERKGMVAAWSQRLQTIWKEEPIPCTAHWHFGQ
Test: Inhibition of human quinone reductase 2 expressed in Escherichia coli BL21(DE3) using N-methyldihydronicotinamide as co-substrate

SMILES | IC50 [µM]
COc1cc(/C=C/c2ccc(F)cc2)cc(OC)c1 | 4.6
COc1ccc(/C=C/c2ccc(O)c(O)c2)cc1 | 9.3
COc1ccc(/C=C/c2ccc3ccccc3c2)cc1OC | 5.5
COc1ccc(/C(C)=C/c2ccc(OC)c(OC)c2)cc1 | 6.7
COc1cc(/C=C(\C)c2ccc(OC)c(OC)c2)cc(OC)c1 | 9.9
N#C/C(=C\c1cc(O)cc(O)c1)c1ccc(O)cc1 | 5.9
OC/C(=C\c1cc(O)cc(O)c1)c1ccc(O)cc1 | 5.1
COc1ccc(/C(C=O)=C/c2cc(OC)cc(OC)c2)cc1 | 24.2
NC(=O)/C(=C\c1cc(O)cc(O)c1)c1ccc(O)cc1 | 9.3
O=C/C(=C/c1cc(O)cc(O)c1)c1ccc(O)cc1 | 25.5
COc1ccc(/C(=C\c2cc(OC)cc(OC)c2)CO)cc1 | 27.5
O=C(Nc1ccc(O)cc1)c1cc(O)cc(O)c1 | 27.6
O=C(Nc1cc(O)cc(O)c1)c1ccc(O)cc1 | 16.8
Oc1ccc(/C=C/c2ccc(O)c(O)c2)cc1 | 6
Oc1ccc(/C=C/c2cccc(F)c2)cc1O | 20.8
CC/C(=C\c1ccc(N(C)C)cc1)c1cc(O)cc(O)c1 | 10.9
CC/C(=C\c1cc(OC)cc(OC)c1)c1ccc(OC)c(OC)c1 | 16.3

SMILES | IC50 [µM]
COc1cc(/C=C/c2ccc3ccccc3c2)cc(OC)c1 | 0.73
COc1cccc(/C=C/c2ccc(OC)c(OC)c2)c1 | 6.8
COc1ccc(/C=C/c2ccc(N(C)C)cc2)cc1OC | 13
C/C(=C\c1cc(O)cc(O)c1)c1ccc(O)cc1 | 39
Oc1ccc(/C=C/c2ccc(C(F)(F)F)cc2)cc1O | < 14.2
COc1ccc(/C=C(/c2cc(OC)cc(OC)c2)C(F)(F)F)cc1 | 13
COc1ccc(/C(C)=C/c2cc(O)cc(O)c2)cc1 | 12
COc1ccc(/C(C)=C/c2cc(OC)cc(OC)c2)cc1 | 20.1
COc1ccc(/C(C)=C/c2cc(O)cc(O)c2)cc1OC | 33.7
COc1ccc(/C=C(/c2cccc(C(F)(F)F)c2)C(F)(F)F)cc1OC | 0.18
C/C(=C\c1ccc(C(F)(F)F)cc1)c1ccc(O)cc1 | 2.8
C/C(=C\c1ccc(O)cc1)c1cc(O)cc(O)c1 | 4.8
COc1ccc(/C(C#N)=C/c2cc(OC)cc(OC)c2)cc1 | 31.6
COc1cc(/C=C/c2ccc(OC)c(OC)c2)cc(OC)c1 [(E)-3,4,3',5'-TETRAMETHOXYSTILBENE] | 37.1
COc1cc(/C=C/c2ccc(O)cc2)cc(OC)c1 [PTEROSTILBENE] | 5.1
COc1ccc(/C=C/c2cc(OC)cc(OC)c2)cc1 [TRISMETHOXYRESVERATROL] | 14.6
